Results reported in the supplement of paper PMC11061612.

What was measured:
Experiment in all cases: combination Emax (second highest fraction inhibited in the dose matrix, 72 h); higher = more inhibition; extreme values may be limits of the assay
[1] = test system: AN3-CA (Endometrial Carcinoma)
In short: (§1)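 Bliss excess equals the observed combination effect minus the expected value EA + EB − EA·EB, where EA and EB are the effects of each agent alone. Combination Emax is the second-highest inhibition within the matrix. Inhibition was scaled from CellTiter-Glo 2.0 luminescence, with 0 set by vehicle wells and 1 by blank wells, after 72 hours of two-drug dosing of cells plated in 1536-well plates.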

[2] = test system: BALL-1 (B-Lymphoblastic Leukemia)
In short: as §1

[3] = test system: Becker (Low Grade Glioma)
In short: as §1

CHL-1 (Melanoma) = test system: CHL-1 (Melanoma)
In short: as §1

[4] = test system: CML-T1 (Chronic Myelogenous Leukemia)
In short: as §1

[5] = test system: COLO-684 (Endometrial Carcinoma)
In short: as §1

[6] = test system: Calu-6 (Non-Small Cell Lung Carcinoma)
In short: as §1

[7] = test system: EB-3 (Burkitt's Lymphoma)
In short: as §1

ES-2 (Ovarian Carcinoma) = test system: ES-2 (Ovarian Carcinoma)
In short: as §1

[8] = test system: FLO-1 (Esophageal Adenocarcinoma)
In short: as §1

[9] = test system: HSC-3 (Oral Cavity Carcinoma)
In short: as §1

KYM-1 (Rhabdomyosarcoma) = test system: KYM-1 (Rhabdomyosarcoma)
In short: as §1

[10] = test system: NCI-H1563 (Lung Adenocarcinoma)
In short: as §1

[11] = test system: NCI-H1623 (Lung Adenocarcinoma)
In short: as §1

[12] = test system: NCI-H1755 (Lung Adenocarcinoma)
In short: as §1

[13] = test system: RPMI-8866 (Chronic Myelogenous Leukemia)
In short: as §1

RT4 (Bladder Carcinoma) = test system: RT4 (Bladder Carcinoma)
In short: as §1

[14] = test system: SJRH30 (Rhabdomyosarcoma)
In short: as §1

[15] = test system: SNU-175 (Colorectal Carcinoma)
In short: as §1

[16] = test system: SW684 (Other Solid Carcinomas)
In short: as §1

Structure (SMILES)	combination Emax [1]	combination Emax [2]	combination Emax [3]	combination Emax (CHL-1 (Melanoma))	combination Emax [4]	combination Emax [5]	combination Emax [6]	combination Emax [7]	combination Emax (ES-2 (Ovarian Carcinoma))	combination Emax [8]	combination Emax [9]	combination Emax (KYM-1 (Rhabdomyosarcoma))	combination Emax [10]	combination Emax [11]	combination Emax [12]	combination Emax [13]	combination Emax (RT4 (Bladder Carcinoma))	combination Emax [14]	combination Emax [15]	combination Emax [16]
COc1cccc2c1C(=O)c1c(O)c3c(c(O)c1C2=O)C[C@@](O)(C(=O)CO)C[C@@H]3O[C@H]1C[C@H](N)[C@H](O)[C@H](C)O1 [Doxorubicin] + Cc1cc2ncnn2cc1Nc1ncc2c(n1)n(C1CCOCC1)c(=O)n2C [AZD7648] (first compound max 1 µM, 7x7, partner max 10 µM)	0.501	0.99	0.555	0.767	1	0.627	0.516	0.919	0.76	0.927	0.702	0.956	0.58	0.647	0.776	0.996	0.867	0.925	0.823	0.556
COc1cc2ncnc(Nc3ccc(F)c(Cl)c3)c2cc1OCCCN1CCOCC1 [Gefitinib] + CC(C)n1c(=O)n(C)c2cnc3cc(F)c(-c4ccc(OCCCN5CCCCC5)nc4)cc3c21 [AZD1390] (first compound max 10 µM, 7x7, partner max 0.3 µM)	0.01	0.279	0.126	0.409	0.148	0.0995	0.128	0.456	0.41	0.357	0.623	0.224	0.228	0.904	0.264	0.119	0.128	0	0.456	0.136
CS(=O)(=O)CCNCc1ccc(-c2ccc3ncnc(Nc4ccc(OCc5cccc(F)c5)c(Cl)c4)c3c2)o1 [Lapatinib] + C[C@@H](Oc1cc(-c2cnn(C3CCNCC3)c2)cnc1N)c1c(Cl)ccc(F)c1Cl [Crizotinib] (first compound max 10 µM, 7x7, partner max 10 µM)	0.874	0.913	0.725	0.757	0.965	0.78	0.815	0.909	0.921	0.881	1	0.971	0.776	0.987	0.957	0.884	0.916	0.955	0.917	0.523
CC(=O)c1c(C)c2cnc(Nc3ccc(N4CCNCC4)cn3)nc2n(C2CCCC2)c1=O [Palbociclib] + CC1(C)CCC(CN2CCN(c3ccc(C(=O)NS(=O)(=O)c4ccc(NCC5CCOCC5)c([N+](=O)[O-])c4)c(Oc4cnc5[nH]ccc5c4)c3)CC2)=C(c2ccc(Cl)cc2)C1 [Venetoclax] (first compound max 10 µM, 7x7, partner max 1 µM)	0.255	1	0.249	0.0898	0.932	0.193	0.353	0.329	0.501	0.495	0.359	0.863	0.313	0.248	0.477	0.754	0.203	0.0832	0.562	0.147
CC(=O)c1c(C)c2cnc(Nc3ccc(N4CCNCC4)cn3)nc2n(C2CCCC2)c1=O [Palbociclib] + Cc1c2c(nn1C)CSCc1cc(n(C)n1)CSc1cc(c3ccccc3c1)OCCCc1c(C(=O)O)n(C)c3c-2c(Cl)ccc13 [AZD5991] (first compound max 10 µM, 7x7, partner max 1 µM)	0.886	0.777	0.428	0.691	0.924	0.321	0.33	0.435	0.619	0.603	0.613	0.947	0.609	0.818	0.524	0.725	0.355	0.786	0.652	0.335
CC(=O)c1c(C)c2cnc(Nc3ccc(N4CCNCC4)cn3)nc2n(C2CCCC2)c1=O [Palbociclib] + Cn1cnc2c(F)c(Nc3ccc(Br)cc3Cl)c(C(=O)NOCCO)cc21 [Selumetinib] (first compound max 10 µM, 7x7, partner max 10 µM)	0.296	0.458	0.368	0.101	0.926	0.153	0.707	0.374	0.569	0.531	0.521	0.93	0.261	0.52	0.543	0.806	0.45	0.143	0.549	0.292
COc1cccc(OCCCN)c1-c1cc(Nc2cnc(C#N)cn2)n[nH]1 [Prexasertib] + C=CCn1c(=O)c2cnc(Nc3ccc(N4CCN(C)CC4)cc3)nc2n1-c1cccc(C(C)(C)O)n1 [AZD1775] (first compound max 1 µM, partner max 1 µM)	0.954	0.997	0.733	0.845	0.99	0.856	0.806	0.818	0.844	0.94	0.847	0.966	0.482	0.841	0.926	1	0.742	0.97	0.744	0.598
COc1cccc(OCCCN)c1-c1cc(Nc2cnc(C#N)cn2)n[nH]1 [Prexasertib] + CCc1c2c(nc3ccc(O)cc13)-c1cc3c(c(=O)n1C2)COC(=O)[C@]3(O)CC [SN-38] (first compound max 1 µM, 7x7, partner max 0.3 µM)	0.946	1	0.816	0.877	1	0.956	0.862	0.87	0.988	0.918	0.937	0.97	0.629	0.987	0.952	1	0.894	0.984	0.734	0.642
COc1cccc(OCCCN)c1-c1cc(Nc2cnc(C#N)cn2)n[nH]1 [Prexasertib] + CN(C)CCCOc1ccc(-c2ccc3ncc4c(c3c2)n(C2CCOCC2)c(=O)n4C)cn1 [AZD0156] (first compound max 1 µM, 7x7, partner max 1 µM)	0.81	0.999	0.711	0.814	0.987	0.854	0.745	0.838	0.863	0.724	0.654	0.952	0.352	0.804	0.936	1	0.304	0.94	0.632	0.42
COc1cccc(OCCCN)c1-c1cc(Nc2cnc(C#N)cn2)n[nH]1 [Prexasertib] + C[C@@H]1COCCN1C2=NC(=NC(=C2)C3(CC3)[S@](=N)(=O)C)C4=C5C=CNC5=NC=C4 [AZD6738] (first compound max 1 µM, 7x7, partner max 10 µM)	0.821	0.998	0.733	0.884	0.97	0.864	0.772	0.83	0.867	0.763	0.731	0.956	0.262	0.827	0.912	1	0.555	0.943	0.616	0.451
COc1cccc(OCCCN)c1-c1cc(Nc2cnc(C#N)cn2)n[nH]1 [Prexasertib] + Cc1cc2ncnn2cc1Nc1ncc2c(n1)n(C1CCOCC1)c(=O)n2C [AZD7648] (first compound max 1 µM, 7x7, partner max 10 µM)	0.843	0.999	0.707	0.838	0.98	0.844	0.796	0.791	0.848	0.703	0.731	0.942	0.466	0.804	0.918	1	0.404	0.935	0.586	0.498
COc1cccc(OCCCN)c1-c1cc(Nc2cnc(C#N)cn2)n[nH]1 [Prexasertib] + O=C(c1cc(Cc2n[nH]c(=O)c3ccccc23)ccc1F)N1CCN(C(=O)C2CC2)CC1 [Olaparib] (first compound max 1 µM, 7x7, partner max 10 µM)	0.81	0.994	0.704	0.838	0.978	0.707	0.698	0.694	0.788	0.677	0.719	0.855	0.27	0.813	0.907	1	0.237	0.868	0.527	0.43
COc1cc2c(cc1OCCCCCOc1cc3c(cc1OC)C(=O)N1C=C(C)C[C@H]1C=N3)N=C[C@@H]1CC(C)=CN1C2=O [SG3199] + O=C(c1cc(Cc2n[nH]c(=O)c3ccccc23)ccc1F)N1CCN(C(=O)C2CC2)CC1 [Olaparib] (first compound max 0.001 µM, 7x7, partner max 10 µM)	0.138	0.845	0.0512	0.092	0.738	0.0915	0.186	0.0944	0.165	0.186	0.157	0.169	0.173	0.376	0.202	0.263	0.169	0.122	0.112	0.0316
